Data as given in PMC11980366, “Natural compounds target the M23B zinc metallopeptidase Mpg to modulate Neisseria gonorrhoeae Type IV pilus expression” (mBio, 2025).

Target: Mpg (Neisseria gonorrhoeae, UniProt Q5F676)
Experiment: fluorescence thermal shift (Sypro-Orange)
Format: binding
Details: read-out: dTm at 5 μM

Sequence of Mpg (Q5F676 31-430): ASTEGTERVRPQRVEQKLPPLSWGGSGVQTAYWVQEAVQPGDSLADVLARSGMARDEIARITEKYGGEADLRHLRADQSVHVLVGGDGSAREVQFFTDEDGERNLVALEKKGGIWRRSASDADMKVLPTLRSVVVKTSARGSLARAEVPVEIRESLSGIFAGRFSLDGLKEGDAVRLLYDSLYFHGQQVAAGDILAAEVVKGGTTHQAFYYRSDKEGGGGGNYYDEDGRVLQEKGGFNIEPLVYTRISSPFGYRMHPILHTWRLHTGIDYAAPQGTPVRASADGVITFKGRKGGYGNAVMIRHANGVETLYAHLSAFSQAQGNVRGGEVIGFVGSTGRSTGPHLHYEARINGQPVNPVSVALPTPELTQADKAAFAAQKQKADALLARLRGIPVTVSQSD

Row | SMILES | ΔTm at 5 µM
1 | O=C1O[C@H]2[C@@H]3OC(=O)c4cc(O)c(O)c(O)c4-c4c(O)c(O)c5oc(=O)c6c(c(O)c(O)c7oc(=O)c4c5c76)-c4c(cc(O)c(O)c4O)C(=O)OC[C@H]3OC(O)[C@@H]2OC(=O)c2cc(O)c(O)c(O)c2-c2c1cc(O)c(O)c2O (mixture of isomers) [punicalagin] | -4.4 °C
2 | O=C(O)C[C@@H]1C(=O)O[C@H]2[C@H](OC(=O)c3cc(O)c(O)c(O)c3)[C@@H](OC(=O)c3cc(O)c(O)c4c3[C@H]1[C@@H](O)C(=O)O4)[C@H](OC(=O)c1cc(O)c(O)c(O)c1)O[C@@H]2COC(=O)c1cc(O)c(O)c(O)c1 [chebulinic acid] | -2.9 °C
